Patent publication US6417174B1, “Inhibitors of β-lactamases and uses therefor” (Northwestern University, priority 1997, dated 2002)
Read-outs that look alike come from different tables or passages of the source.

Key:
[1] = molecular target: AmpC β-lactamase from E. coli (Escherichia coli, UniProt P00811); assay: biochemical; type: biochemical
[2] = molecular target: T1, TEM-1 β-lactamase from E. coli (Escherichia coli, UniProt P62593); assay: Inhibition of TEM-1 β-lactamase, spectrophotometric assay (FAP substrate); type: biochemical
T1 construct: gift: Natalie Strynadka, University of Alberta

[3] = test system: E. coli RYC1000 harboring plasmid pBGAmpC-MHN (AmpC β-lactamase of Enterobacter cloacae); assay: microbe, parasite or virus in culture; type: cell-based, Escherichia coli; conditions: for MIC of ceftazidime plus inhibitor: Table 3A, proportion 4/1, given as CAZ/inhibitor; for MIC of ceftazidime plus inhibitor / MIC of inhibitor used alone without ceftazidime: AmpC-MHN; for MIC of inhibitor used alone without ceftazidime: Table 3B; for MIC of amoxicillin plus inhibitor: Table 4A, EC-AmpCEn, proportion 4/1; for MIC of inhibitor used alone without amoxicillin: Table 4B, ECAmpCEn, not tested above 128 μg/ml, “256” indicates no inhibition of cell growth; on MIC of ceftazidime plus inhibitor: values in µg/ml
Method: (§1) After incubation, the growth of the cells was visually inspected. The minimum inhibitory concentration (MIC) is the lowest concentration where there no cell growth was observed.
(§2) The following strains were used: Enterobacter cloacae cell line with derepressed β-lactamase production (Ent-Der), and Escherichia coli RYC1000 (araD139 D lacU169 rpsL D rib7 thiA gyrA recA56) cell lines, harboring the plasmid pBGS19 (with no β-lactamase), or the β-lactamase containing plasmids pBGAmpC (AmpC β-lactamase from E. coli; Eco-AmpC), or pBGAmpC-MHN (AmpC β-lactamase from Enterobacter cloacae; Eco-AmpCEnt). […] TEM-10 and TEM-24 differ from TEM-1 due to the following point substitutions: TEM-10 (R164S, E240K); TEM-24 (L102K, L162S, S235T, A237K). TEM-10 and TEM-24 also differ from TEM-1 in being extended spectrum enzymes (i.e., they react with a greater range of substrates than TEM-1). Also tested were clinical isolates of Pseudomonas aeruginosa. All bacterial strains and plasmids are available from Jesus Blazquez and Fernando Baquero, Servicio de Microbiologia, Hospital Ramon y Cajal, National Institute of Health, Madrid, Spain.
(§3) Several ratios, including 1:1, 2:1, 4:1, and 1:3, of β-lactam antibiotic (amoxicillin (AX) or ceftazidime (CAZ)) to boronic acid compound were used in the assays. Tazobactam (TAZO), a clinically used β-lactamase inibitor, was used as a positive control.

[4] = test system: E. coli RYC1000 harboring plasmid pBGTEM-24 (TEM-24 β-lactamase); assay: microbe, parasite or virus in culture; type: cell-based, Escherichia coli; conditions: for MIC of ceftazidime plus inhibitor: Table 3A, proportion 4/1, given as CAZ/inhibitor; for MIC of inhibitor used alone without ceftazidime: Table 3B; on MIC of ceftazidime plus inhibitor: values in µg/ml
Method: as §1, §2, §3

[5] = test system: E. coli RYC1000 harboring plasmid pBGS19 (no β-lactamase); assay: microbe, parasite or virus in culture; type: cell-based, Escherichia coli; conditions: for MIC of ceftazidime plus inhibitor: Table 3A, proportion 4/1; for MIC of ceftazidime plus inhibitor / MIC of inhibitor used alone without ceftazidime: pBGS19; for MIC of inhibitor used alone without ceftazidime: Table 3B; for MIC of inhibitor used alone without amoxicillin: Table 4B, EC, not tested above 128 μg/ml, “256” indicates no inhibition of cell growth
Method: as §1, §2, §3

[6] = test system: β-lactamase derepressed strain of Enterobacter cloacae (Ent-Der); assay: microbe, parasite or virus in culture; type: cell-based; conditions: for MIC of ceftazidime plus inhibitor: Table 3A, proportion 4/1, given as CAZ/inhibitor; for MIC of ceftazidime plus inhibitor / MIC of inhibitor used alone without ceftazidime: Ent. Der.; for MIC of inhibitor used alone without ceftazidime: Table 3B; for MIC of amoxicillin plus inhibitor: Table 4A, proportion 4/1; for MIC of amoxicillin plus inhibitor / MIC of inhibitor used alone without amoxicillin: Ent-Der.; for MIC of inhibitor used alone without amoxicillin: Table 4B, not tested above 128 μg/ml, “256” indicates no inhibition of cell growth; on MIC of ceftazidime plus inhibitor: values in µg/ml
Method: as §1, §2, §3

[7] = test system: E. coli RYC1000 harboring a plasmid coding for a mutant of AmpC from Enterobacter (ECR-AmpCEnM); assay: microbe, parasite or virus in culture; type: cell-based, Escherichia coli; conditions: for MIC of amoxicillin plus inhibitor: Table 4A, ECR-AmpCEnM, proportion 4/1; for MIC of inhibitor used alone without amoxicillin: Table 4B, ECRAmpCEnM, not tested above 128 μg/ml, “256” indicates no inhibition of cell growth
Method: as §1, §2, §3

[8] = test system: E. coli RYC1000 harboring pBGTEM-10 producing TEM-10 β-lactamase (EC-T10); assay: microbe, parasite or virus in culture; type: cell-based, Escherichia coli; conditions: EC-T10; for MIC of amoxicillin plus inhibitor: Table 4A, proportion 4/1; for MIC of inhibitor used alone without amoxicillin: Table 4B, not tested above 128 μg/ml, “256” indicates no inhibition of cell growth
Method: as §1, §2, §3

[9] = test system: E. coli RYC1000 harboring pBGTEM-1 producing TEM-1 β-lactamase (EC-T1); assay: microbe, parasite or virus in culture; type: cell-based, Escherichia coli; conditions: EC-T1; for MIC of amoxicillin plus inhibitor: Table 4A, proportion 4/1; for MIC of inhibitor used alone without amoxicillin: Table 4B, not tested above 128 μg/ml, “256” indicates no inhibition of cell growth
Method: as §1, §2, §3

[10] = test system: E. coli RYC1000 harboring pBGAmpC-E. coli producing AmpC (ECR-AmpCEc); assay: microbe, parasite or virus in culture; type: cell-based, Escherichia coli; conditions: ECR-AmpCEc; for MIC of amoxicillin plus inhibitor: Table 4A, proportion 4/1; for MIC of inhibitor used alone without amoxicillin: Table 4B, not tested above 128 μg/ml, “256” indicates no inhibition of cell growth
Method: as §1, §2, §3

[11] = Tables 2A/2B, pH 7.0, 25° C., 100 μM cephalothin, read-out: Ki E. coli AmpC
[12] = Tables 2A/2B, pH 7.0, 25° C., 100 μM FAP, N.I. = no inhibition observed at an inhibitor concentration of 100 μM, read-out: Ki E. coli TEM-1
[13] = pH 7, read-out: Ki E. coli AmpC
[14] = Table 5, as described in Example 2, read-out: Ki AmpC

T1 sequence (P62593 24-286 limits assumed): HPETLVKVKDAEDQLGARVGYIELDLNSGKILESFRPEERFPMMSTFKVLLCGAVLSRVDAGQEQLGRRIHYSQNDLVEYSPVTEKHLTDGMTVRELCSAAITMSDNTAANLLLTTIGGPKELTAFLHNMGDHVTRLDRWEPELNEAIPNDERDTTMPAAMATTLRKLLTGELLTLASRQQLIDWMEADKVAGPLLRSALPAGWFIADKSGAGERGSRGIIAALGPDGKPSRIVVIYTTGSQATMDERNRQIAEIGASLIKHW
Sequence of AmpC β-lactamase from E. coli (P00811 20-377): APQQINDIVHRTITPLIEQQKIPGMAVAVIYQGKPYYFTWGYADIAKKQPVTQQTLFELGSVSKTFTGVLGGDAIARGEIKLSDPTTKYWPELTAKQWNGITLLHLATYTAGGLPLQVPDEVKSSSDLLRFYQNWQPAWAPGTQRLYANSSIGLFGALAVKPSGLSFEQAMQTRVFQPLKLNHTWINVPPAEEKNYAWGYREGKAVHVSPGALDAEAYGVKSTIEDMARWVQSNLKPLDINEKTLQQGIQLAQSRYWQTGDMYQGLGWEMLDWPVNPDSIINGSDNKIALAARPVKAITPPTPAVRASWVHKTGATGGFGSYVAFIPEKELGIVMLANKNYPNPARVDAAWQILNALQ

Compound `O=Cc1ccc(B(O)O)cc1` [4FORMB, 4-formylphenylboronate, reference compound] has a Ki [1, 11] of 2.8 µM and a Ki [2, 12] of 35 µM.
`OB(O)c1csc2ccccc12` showed a Ki ([1]; read-out: Ki AmpC) of 0.78 ± 0.08 µM.
For `OB(O)c1cccc(C(F)(F)F)c1` [3TFMB], the “Ki values (AmpC), range in words” value [1] was “one to two”, the Ki [1, 13] was 1.6 µM and the Ki [2, 12] was 85 µM.
For `OB(O)c1cccc2ccccc12` [NAPB], the Ki [1, 11] was 10.4 µM, the “dissociation constant relative to MAPB (AmpC)” value ([1]; compared with MAPB) was “two to three-fold worse (higher)” and the Ki [2, 12] was 34 µM.
With `CC(=O)c1ccc(B(O)O)s1` [5ACTH2B, 5-acetylthiophene-2-boronic acid] the Ki [1, 11] was 1.8 µM and the Ki [2] was greater than 50 µM.
For `CCCCB(O)O` [BUTB, Butylboronic acid], the Ki [1, 11] was greater than 500 µM and the Ki [2] was greater than 100 µM.
In the case of `O=C(O)/C=C/c1cccc(B(O)O)c1`, the Ki [1, 14] is reported as 5.9 ± 0.3 µM.
Work on `OB(O)c1ccc(B(O)O)cc1` [B14DA] yielded a Ki [1, 13] of 6.9 µM and a Ki [2, 12] of 40 µM.
`OB(O)c1ccc2c(c1)OCO2` showed a Ki [1, 14] of 53.4 ± 6.1 µM.
For `Oc1ccc(N=Nc2ccc(Br)cc2)cc1B1OB(c2cc(N=Nc3ccc(Br)cc3)ccc2O)OB(c2cc(N=Nc3ccc(Br)cc3)ccc2O)O1` [4BPAPB, 2,4,6-tris(β-(4-bromophenylazo)-2-hydroxyphenyl) boroxin], the “MIC of ceftazidime plus inhibitor” value [3] was 8/2, the “MIC of inhibitor used alone without ceftazidime” value [3] was 256 µg/mL and the “MIC of ceftazidime plus inhibitor” value [4] was 256/64. The “MIC of inhibitor used alone without ceftazidime” value [4] was 256 µg/mL, the “MIC of ceftazidime plus inhibitor” value [5] was less than 0.25 µg/mL and the “MIC of inhibitor used alone without ceftazidime” value [5] was 128 µg/mL. The Ki [1, 13] was 7.2 µM, the Ki [2, 12] was 1.2 µM and the “MIC of ceftazidime plus inhibitor” value [6] was 512/128. The “MIC of inhibitor used alone without ceftazidime” value [6] was greater than 512 µg/mL.
With `OB(O)[C@@H]1CCOC1` [(R)-3-tetrahydrofuranyl-boronic acid] the Ki ([1]; read-out: Ki for AmpC) was 1.4 ± 0.1 µM.
In the case of `OB(O)c1cccs1` [TH2B, thiophene-2-boronic acid], the “MIC of amoxicillin plus inhibitor” value [7] is reported as 32 µg/mL, the “MIC of inhibitor used alone without amoxicillin” value [7] is reported as 64 µg/mL and the “MIC of amoxicillin plus inhibitor” value [8] is reported as 256 µg/mL. For the same compound, the “MIC of inhibitor used alone without amoxicillin” value [8] was 128 µg/mL, the “MIC of ceftazidime plus inhibitor” value [3] was 8/2 and the “MIC of inhibitor used alone without ceftazidime” value [3] was 128 µg/mL. The “MIC of amoxicillin plus inhibitor” value [3] was 32 µg/mL, the “MIC of inhibitor used alone without amoxicillin” value [3] was 128 µg/mL and the “MIC of amoxicillin plus inhibitor” value [9] was 128 µg/mL. For the same compound, the “MIC of inhibitor used alone without amoxicillin” value [9] was 64 µg/mL, the “MIC of amoxicillin plus inhibitor” value [10] was 64 µg/mL and the “MIC of inhibitor used alone without amoxicillin” value [10] was 128 µg/mL. The “MIC of ceftazidime plus inhibitor” value [4] was 128/32, the “MIC of inhibitor used alone without ceftazidime” value [4] was 128 µg/mL and the “MIC of ceftazidime plus inhibitor” value [5] was less than 0.25 µg/mL. The “MIC of inhibitor used alone without ceftazidime” value [5] was 128 µg/mL, the “MIC of inhibitor used alone without amoxicillin” value [5] was 64 µg/mL and the Ki [2] was 31 µM. For the same compound, the “MIC of ceftazidime plus inhibitor” value [6] was 32/8, the “MIC of inhibitor used alone without ceftazidime” value [6] was 256 µg/mL and the “MIC of amoxicillin plus inhibitor” value [6] was 64 µg/mL. For the same compound, the “MIC of inhibitor used alone without amoxicillin” value [6] was 128 µg/mL.
`Cc1ccc(B(O)O)cc1` [4MEPB, 4-methylphenylboronate, reference compound] gave a Ki [1, 13] of 5.2 µM and a Ki [2, 12] greater than 100 µM.
`C[C@]1(Cn2ccnn2)[C@H](C(=O)O)N2C(=O)C[C@H]2S1(=O)=O` [TAZO, Tazobactam, reference compound] was tested, and the “MIC of amoxicillin plus inhibitor” value [7] was 16 µg/mL, the “MIC of inhibitor used alone without amoxicillin” value [7] was 64 µg/mL and the “MIC of amoxicillin plus inhibitor” value [8] was 4 µg/mL. The “MIC of inhibitor used alone without amoxicillin” value [8] was 64 µg/mL, the “MIC of ceftazidime plus inhibitor” value [3] was 4/1 and the “MIC of amoxicillin plus inhibitor” value [3] was 16 µg/mL. The “MIC of inhibitor used alone without amoxicillin” value [3] was 64 µg/mL, the “MIC of amoxicillin plus inhibitor” value [9] was 8 µg/mL and the “MIC of inhibitor used alone without amoxicillin” value [9] was 32 µg/mL. For the same compound, the “MIC of amoxicillin plus inhibitor” value [10] was 32 µg/mL, the “MIC of inhibitor used alone without amoxicillin” value [10] was 64 µg/mL and the “MIC of ceftazidime plus inhibitor” value [4] was 8/2. For the same compound, the “MIC of ceftazidime plus inhibitor” value [5] was less than 0.25 µg/mL, the “MIC of inhibitor used alone without amoxicillin” value [5] was 32 µg/mL and the “MIC of ceftazidime plus inhibitor” value [6] was 32/8. For the same compound, the “MIC of amoxicillin plus inhibitor” value [6] was 128 µg/mL and the “MIC of inhibitor used alone without amoxicillin” value [6] was 256 µg/mL.
`OB(O)c1ccsc1` [TH3B, thiopene-3-boronic acid] was tested, and the Ki [1, 13] was 17 µM, the Ki ([1]; read-out: Ki for AmpC) was 22.1 ± 3.5 µM and the Ki [2, 12] was 100 µM.
With `O=C1OC(=O)c2ccccc2/C1=N/Nc1cccc(B(O)O)c1` the Ki [1, 14] was 0.075 µM.
